Measured values as given in patent US20230102488A1, “COMPOUNDS AND THEIR USE FOR THE TREATMENT OF ALPHA1-ANTITRYPSIN DEFICIENCY” (Z Factor Limited, priority 2019, published 2023).

Target: T1, Z A1AT (Homo sapiens, UniProt P01009, E366K)
T1 construct: expressed in transfected cells; host or cells: HEK-Z cells (human embryonic kidney cell line)
Test: A1AT cell secretion assay using HEK-Z cells (A1AT ELISA of supernatants)
Type: cell-based
Details: 48 h, read-out: Median A1AT % increase over vehicle at 300 nM
Description: HEK-Z cells, a human embryonic kidney cell line stably transfected with the human Z A1AT gene, were plated into 96 well plates (3.0×10^5 cells/ml with 200 μl of media/well) overnight at 37° C. in a humidified atmosphere containing 5% CO2. Following incubation cells were washed with 200 μl serum-free media three times and media was replaced with treatments in quadruplicate using serum free media containing either vehicle, 10 μM suberanilohydroxamic acid (SAHA) or a compound of the invention ([…]) for 48 h in a 37° C. incubator in a final volume of 200 μl. At the end of the incubation step the supernatants were removed from the wells, centrifuged at 1000×g at 4° C. for 10 min and were assayed for human A1AT levels by ELISA (Human Serpin A1/α1-antitrypsin duo set ELISA, R& D Systems, DY1268) per manufacturer's instructions.
Briefly, a 96 well plate was coated with human A1AT capture antibody overnight at room temperature (1:180 dilution from stock, 100 μl final volume/well). The capture antibody was then removed and wells washed three times with 300 μl wash buffer (0.05% Tween 20 in PBS) and then 200 μl reagent diluent ([…]) was incubated in each well for 1 h at room temperature. Diluted samples, standards (125, 250, 500, 1000, 2000, 4000 and 8000 pg/ml A1AT) or blanks were then added to each well in duplicate and the plates were covered with a plate sealer and left at room temperature for 2 h. At the end of the sample incubation step, samples were removed and all wells washed as previously and 100 μl detection antibody (1:180 dilution from stock) was added to each well and incubated for a further 2 h at room temperature. Following incubation with detection antibody, supernatant was removed and wells were washed as previously and 100 μl streptavidin-HRP solution (1:200 dilution from stock) was added to each well for 20 min in the dark. After which, 50 μl stop solution (2M H2SO4) was added and optical density (OD) of each well was read at 450 nm with 570 nm blank subtracted from each well using a microplate reader. A 4 parameter logistic curve was constructed using GraphPad Prism 7 and A1AT concentrations were determined in each sample by interpolation from a standard curve and multiplying by the appropriate dilution factor.

T1 sequence (P01009 25-418 E366K): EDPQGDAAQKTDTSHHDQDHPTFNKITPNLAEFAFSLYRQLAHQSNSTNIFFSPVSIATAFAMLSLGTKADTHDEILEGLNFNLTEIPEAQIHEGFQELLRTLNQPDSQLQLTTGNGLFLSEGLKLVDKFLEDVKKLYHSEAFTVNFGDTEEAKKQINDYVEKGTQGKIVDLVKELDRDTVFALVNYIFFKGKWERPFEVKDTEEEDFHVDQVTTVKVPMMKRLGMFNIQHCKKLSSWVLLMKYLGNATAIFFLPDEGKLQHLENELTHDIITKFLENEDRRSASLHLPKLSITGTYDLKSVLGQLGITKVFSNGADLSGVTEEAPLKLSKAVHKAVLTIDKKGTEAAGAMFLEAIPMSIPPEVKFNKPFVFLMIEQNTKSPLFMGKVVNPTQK

Row | SMILES | activation at 0.3 µM [%]
1 | CN(CC(F)(F)F)C(=O)c1ccc(Cn2cnc3ccccc3c2=O)cc1 [Example 17, N-methyl-4-((4-oxoquinazolin-3(4H)-yl)methyl)-N-(2,2,2-trifluoroethyl)benzamide] | 170
2 | CNC(=O)c1ccc(Cn2cnc3ccccc3c2=O)cc1 [Example 5, N-Methyl-4-((4-oxoquinazolin-3(4H)-yl)methyl)benzamide] | 180
3 | CC(C)N(C)C(=O)c1ccc(Cn2cnc3ccccc3c2=O)cc1 [Example 15, N-isopropyl-N-methyl-4-((4-oxoquinazolin-3(4H)-yl)methyl)benzamide] | 190
4 | CN(Cc1ccccc1)C(=O)c1ccc(Cn2cnc3ccccc3c2=O)cc1 [Example 16, N-benzyl-N-methyl-4-((4-oxoquinazolin-3(4H)-yl)methyl)benzamide] | 160

Same assay, conditions: HEK-Z cells, 300 nM, 48 h, secreted human A1AT in supernatant by ELISA; read-out: Median A1AT % increase over vehicle at 300 nM

Row | SMILES | activation at 0.3 µM [%]
5 | Cc1ncn(Cc2ccc(C(=O)N(C)C)cc2)c(=O)c1C [Example 18, 4-((4,5-dimethyl-6-oxopyrimidin-1(6H)-yl)methyl)-N,N-dimethylbenzamide] | 170
6 | CNC(=O)c1ccc(Cn2cnc3ccc(Cl)cc3c2=O)cc1 [Example 6, 4-((6-chloro-4-oxoquinazolin-3(4H)-yl)methyl)-N-methylbenzamide] | 200
7 | CN(Cc1ccccc1)C(=O)c1ccc(Cn2cnccc2=O)cc1 [Example 8, N-benzyl-N-methyl-4-((6-oxopyrimidin-1(6H)-yl)methyl)benzamide] | 150
8 | O=C(NCc1ccc(F)cc1)c1ccc(Cn2cnccc2=O)cc1 [Example 13, N-(4-fluorobenzyl)-4-((6-oxopyrimidin-1(6H)-yl)methyl)benzamide] | 190

Continued, values first:

Row | activation at 0.3 µM [%] | SMILES
9 | 330 | CCN(C)C(=O)c1ccc(Cn2cnccc2=O)cc1 [Example 1, N-Ethyl-N-methyl-4-((6-oxopyrimidin-1(6H)-yl)methyl)benzamide]
10 | 260 | NC(=O)c1ccc(Cn2cnccc2=O)cc1 [Example 10, 4-((6-oxopyrimidin-1(6H)-yl)methyl)benzamide]
11 | 180 | O=C(NCC(F)(F)F)c1ccc(Cn2cnccc2=O)cc1 [Example 14, 4-((6-oxopyrimidin-1(6H)-yl)methyl)-N-(2,2,2-trifluoroethyl)benzamide]
12 | 160 | CC(C)N(C)C(=O)c1ccc(Cn2cnccc2=O)cc1 [Example 7, N-isopropyl-N-methyl-4-((6-oxopyrimidin-1(6H)-yl)methyl)benzamide]
13 | 210 | CC(C)NC(=O)c1ccc(Cn2cnccc2=O)cc1 [Example 12, N-isopropyl-4-((6-oxopyrimidin-1(6H)-yl)methyl)benzamide]
14 | 230 | CCN(CC)C(=O)c1ccc(Cn2cnccc2=O)cc1 [Example 11, N,N-diethyl-4-((6-oxopyrimidin-1(6H)-yl)methyl)benzamide]
15 | 280 | O=C(c1ccc(Cn2cnccc2=O)cc1)N1CCOCC1 [Example 3, 3-(4-(Morpholine-4-carbonyl)benzyl)pyrimidin-4(3H)-one]
16 | 390 | CN1CCN(C(=O)c2ccc(Cn3cnccc3=O)cc2)CC1 [Example 4, 3-(4-(4-Methylpiperazine-1-carbonyl)benzyl)pyrimidin-4(3H)-one]
17 | 350 | O=C(c1ccc(Cn2cnccc2=O)cc1)N1CCCC1 [Example 2, 3-(4-(Pyrrolidine-1-carbonyl)benzyl)pyrimidin-4(3H)-one]
18 | 170 | CN(CC(F)(F)F)C(=O)c1ccc(Cn2cnccc2=O)cc1 [Example 9, N-methyl-4-((6-oxopyrimidin-1(6H)-yl)methyl)-N-(2,2,2-trifluoroethyl)benzamide]
